This is an account of results in patent US20170335402A1, “DOT1L INHIBITORS AND USES THEREOF” (Baylor College of Medicine, priority 2014, published 2017).

Type in all cases: cell-based, human
One experiment deals with OCI AML2 cells. Nature of the experiment: Quantitative RT PCR of leukemogenic gene expression. The following applies: 3 μM. How it is done:
(§1) RNA was extracted from OCI AML2 and OCI AML3 cells treated with 3 μM EPZ004777 or DMSO control using RNeasy RNA isolation kit (Qiagen) per manufacturer's protocol. RNA was quantified using Nanodrop instrument and 300-1000 ng (equal quantities for EPZ004777 treated and DMSO controls) of RNA were reverse transcribed using the SuperScript® III First-Strand Synthesis System (Invitrogen). Reverse transcription quantitative PCR was then performed in triplicate using predesigned TaqMan primer and probe sets for HOXA9 (Hs00365956_m1), MEIS1 (Hs01017441_m1), HOXB8 (Hs00256885_m1), HOXB3 (Hs01587922_m1), and GAPDH (Hs02758991_ml) (FAM-MGB; Applied Biosystems) for 30 cycles using an AbiPrism 7900HT (Applied Biosystems). Target gene numbers were normalized to the ribosomal RNA 18s (VIC-MGB; Applied Biosystems) and fold-change determined by the 2^−ΔΔCT equation.

In another experiment the test system is OCI AML3 cells. The description is as above. The note with it: 3 μM. The procedure:
as §1

The test system of the next experiment is DNMT3A mutant cells. Nature of the experiment: HOX gene expression in DNMT3A mutant cells (FIG. 10). The note with it: FIG. 10, day 6 and day 10 of treatment. How it is done: as §1
The subject of experiment [1] is normal CD34+ cells isolated from cord blood. Nature of the experiment: Colony-forming cell assay. The following applies: 3 μM.
Experiment [2] relates to primary AML patient samples with DNMT3A mutation. Put plainly: Flow cytometry of cells isolated from CFC plates (differentiation). The following applies: cells isolated from culture plates after CFC assay; 3 μM. How it is done:
Viably frozen human primary AML samples were thawed quickly and placed in fresh RPMI 1640 (Invitrogen) plus 10% FBS, 1% L-glutamine, and 1% pen strep. After recovery for 2-3 hours in media, viable cells were counted by trypan blue exclusion and plated in triplicate (5,000 viable cells/plate) in human H4034 methylcellulose media (StemCell Technologies) with 3 μM EPZ00477 or DMSO vehicle control. After 12-14 days, plates were scored for colony counts and colony morphology. Cells were then isolated from the plates, stained for CD45, CD14, CD13 and analyzed by flow cytometry. Cell morphology was examined by H&E staining of cytospins of isolated cells prepared using the CytoPro cytocentrifuge.

Consider `CC(C)N(CCCNC(=O)Nc1ccc(C(C)(C)C)cc1)C[C@H]1O[C@@H](n2ccc3c(N)ncnc32)[C@H](O)[C@@H]1O` [EPZ004777], for which, in the experiment with OCI AML2 cells, the “expression of GAPDH (housekeeping gene)” value is “not affected”, the “expression of HOXA9” value was “reduced the expression” and the “expression of MEIS1” value was “reduced the expression”. Moreover, in the experiment on OCI AML3 cells, the “expression of GAPDH (housekeeping gene)” value is “not affected”, the “expression of HOXB cluster genes” value is recorded as “reduced the expression” and the “expression of MEIS1” value is “reduced the expression”. Further, in the experiment on DNMT3A mutant cells, the “oncogenic HOX gene expression” value is on record as “reduces HOX gene expression”. Further, in experiment [1], the “colony-forming capacity (CFC)” value is “did not significantly impact”. Also, the “terminal differentiation (flow cytometry, live CD45+ cells)” value in experiment [2] is recorded as “induces terminal differentiation”.
